Laboratory results taken from patent US6468980B1, “Methods and compositions for potentiating cancer chemotherapeutic agents” (Oxycal Laboratories, Inc., priority 2000, dated 2002).

System: SK-Hep-1, a liver adenocarcinoma (hepatoma) cells
Test: BrdU cell proliferation ELISA, adriamycin plus ascorbate adjuvant, hepatoma cells
Format: cell-based, human
Conditions: for suppression of hepatoma proliferation, ADR plus adjuvant compared with ADR alone: adjuvant 0.5 mM AA equivalents, one application of ADR (0.003-0.3 micromolar), two applications of adjuvant, FIG. 1
Source text: Calcium ascorbate (CA), calcium threonate (CT), 4-hydroxy-5-methyl-3(2H)-furanone (FR) and Ester-C (EC) are obtained from Inter-Cal Corporation, Prescott, Ariz., USA. Tissue culture grade Ascorbic acid (AA) is from Sigma Chemical Company, St. Louis, Mo., USA. The composition of calcium ascorbate (calcium di-(L-ascorbate) dihydrate) is made by sequentially dissolving individual components in sterile water to obtain master-stock solutions of equal strength (1% w/v). Aqueous solution of calcium ascorbate plus calcium threonate plus 4-hydroxy-5-methyl-3(2H)-furanone (CA/CT/FR) is prepared at ratio of 85/7.5/7.5. For comparative analysis, stock solutions containing identical ascorbic acid (AA) equivalents are used. All master stocks are stored at room temperature during the course of these procedures. From these, 10× strength working stocks are prepared by serial dilution on the day of use and are applied to cells in microtiter plates as described below.
Adriamycin (doxorubicin) is obtained from Sigma Chemical Company (St. Louis, Mo.). Stock solutions are made by dissolving adriamycin (ADR) in sterile water and DTIC in water or dilute acetic acid solution (0.01N). Stocks are stored frozen at −10 C and thawed prior to use. Serial dilutions are made in sterile water to obtain 10× strength solutions and […] of this is applied to cells at the time of treatment.
Target human tumor-derived or normal lines consist of SK-Hep-1, a liver adenocarcinoma ([…]) and Malme-3M, a malignant melanoma. All seed cultures are obtained from ATCC, Mannassas, Va., USA and are propagated/maintained in serum-containing growth medium in a humidified incubator of 5% CO2/95% air. SH-Hep-1 cells are grown in Eagle's minimum essential medium (EMEM) in Earle's salts plus non-essential amino acids supplemented with 10% FBS plus antibiotics and Malme-3M cells are cultured in McCoy's medium supplemented with 15% fetal bovine serum (FBS) plus antibiotics.
For treatment, exponentially growing cells are seeded at a density of 1×10^4 cells per well of 96-well microtiter plate in 0.1-0.2 ml of growth medium. After overnight cell attachment at 37 C, duplicate wells are exposed to various treatments by direct application of one-tenth volume of 10× strength solution. For treatments involving chemotherapeutic agent, one-tenth volume of serial dilutions of adriamycin (0.0006-3.0 micromolar) are applied to wells followed by application of ascorbate-containing composition (adjuvant) or sterile water (control). The adjuvant treatment is repeated every other day or on the third day (as applicable) without change of growth medium. Untreated controls receive an equivalent amount of sterile water. After 2-3 treatments with adjuvant, cells are labeled with BudR as described below. (In some experiments, wells are refed an equal volume of growth medium prior to additional of BudR. This gives a higher amount of BrdU incorporation into DNA relative to no refluiding).
For DNA labeling, the following procedure are adapted and modified from the Cell Proliferation ELISA, BudR (Colorimetric) assay of Roche Diagnostics, Indianapolis, IN, USA: Each treated well is exposed to one-tenth volume of 10× BrdU-containing medium and reincubated and 37 C overnight (15-20 hrs.). One set of control wells is exposed to medium only (no BudR) to obtain an absorbance-control (substrate only) blank for the assay. After the labeling period, the culture medium is removed and the cells are fixed and DNA denatured in one step by adding FixDenat (30 min at RT). Then, FixDenat is removed, the anti-BrdU-peroxidase reagent is added and incubation continues for 90 min at RT. After removal of the latter, the plate is washed 3 times, followed by addition of substrate solution. The plate is kept at RT until color development became sufficient for photometric detection (5-10 min). […]

Row | Compound | suppression of hepatoma proliferation, ADR plus adjuvant compared with ADR alone | suppression of hepatoma proliferation, ADR plus adjuvant compared with ADR alone (listed as Ascorbic Acid (AA)) | suppression of hepatoma proliferation, ADR plus adjuvant compared with ADR alone (dihydrate) | suppression of hepatoma proliferation, ADR plus adjuvant compared with ADR alone (listed as Calcium Ascorbate (CA), dihydrate) | suppression of hepatoma proliferation, ADR plus adjuvant compared with ADR alone (listed as Calcium ascorbate, dihydrate) | effect of adjuvant on anti-proliferation activity of low doses of ADR in hepatoma cells (adjuvant at 0.033%, FIG. 4)
1 | O=C1O[C@H]([C@@H](O)CO)C(O)=C1O [AA, Ascorbic acid, reference compound] | greater suppression of hepatoma proliferation than ADR alone | greater suppression of hepatoma proliferation than doxorubicin alone | – | – | – | –
2 | calcium di-(L-ascorbate) dihydrate | – | – | greater suppression of hepatoma proliferation than ADR alone | greater suppression of hepatoma proliferation than doxorubicin alone | more effective than ascorbic acid | consistently improve the anti-proliferation activity of low doses of ADR
